The source of these data is patent publication US12275731B2, “Azaindole inhibitors of wild-type and mutant forms of LRRK2” (DANA-FARBER CANCER INSTITUTE, INC., priority 2018, dated 2025).

What all share (test): KinomeScan profiling
Holding throughout (format): binding

In one test the target is T1, ALK(C1156Y) (Homo sapiens, UniProt Q9UM73, C1156Y).
T1 construct: purchased KinomeScan®
The note with it: read-out: % control. The gist of the method:
(§1)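 The panel spans 468 kinases, and each inventive compound was applied at 1 μM from DMSO. Lower % control means stronger binding; the activity cut-off is set at less than 35%.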

In a further test the target is T2, EPHA3 (Homo sapiens, UniProt P29320).
T2 sequence (P29320 21-983): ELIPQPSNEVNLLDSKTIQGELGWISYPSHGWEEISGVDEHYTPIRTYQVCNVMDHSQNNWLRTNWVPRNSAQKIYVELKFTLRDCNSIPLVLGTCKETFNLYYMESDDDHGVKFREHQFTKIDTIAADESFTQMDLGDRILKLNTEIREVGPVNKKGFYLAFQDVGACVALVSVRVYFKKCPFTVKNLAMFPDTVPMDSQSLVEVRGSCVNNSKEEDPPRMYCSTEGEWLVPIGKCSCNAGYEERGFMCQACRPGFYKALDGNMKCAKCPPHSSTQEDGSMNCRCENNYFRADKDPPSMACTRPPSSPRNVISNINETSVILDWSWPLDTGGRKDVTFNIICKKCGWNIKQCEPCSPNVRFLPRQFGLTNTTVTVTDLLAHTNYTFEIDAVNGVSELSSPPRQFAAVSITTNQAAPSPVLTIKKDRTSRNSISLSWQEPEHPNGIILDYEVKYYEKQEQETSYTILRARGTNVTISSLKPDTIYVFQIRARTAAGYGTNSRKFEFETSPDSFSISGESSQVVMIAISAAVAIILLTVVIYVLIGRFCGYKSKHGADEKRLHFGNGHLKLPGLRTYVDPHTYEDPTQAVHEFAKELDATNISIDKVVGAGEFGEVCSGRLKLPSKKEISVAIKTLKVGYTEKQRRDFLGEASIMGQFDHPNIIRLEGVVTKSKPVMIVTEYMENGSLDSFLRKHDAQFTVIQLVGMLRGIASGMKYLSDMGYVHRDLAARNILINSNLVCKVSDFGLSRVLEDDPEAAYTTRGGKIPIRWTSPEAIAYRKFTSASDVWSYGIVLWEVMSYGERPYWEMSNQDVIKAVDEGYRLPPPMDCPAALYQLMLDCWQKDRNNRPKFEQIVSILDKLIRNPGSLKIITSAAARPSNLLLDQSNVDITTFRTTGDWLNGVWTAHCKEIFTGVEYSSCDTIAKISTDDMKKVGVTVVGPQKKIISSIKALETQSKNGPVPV
The note with it: EPHA3, 1 μM; read-out: % control. In short, it runs like this: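 Percent-of-control values derive from RLU, calculated as (test − positive)/(negative − positive) × 100, where DMSO defines 100% and a positive control compound defines 0%. Each compound was tested at 1 μM in the 468-kinase panel; sub-35% readings indicate activity.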

For another test, the target named is T3, FLT3 (Homo sapiens, UniProt P36888).
T3 sequence (P36888 27-993): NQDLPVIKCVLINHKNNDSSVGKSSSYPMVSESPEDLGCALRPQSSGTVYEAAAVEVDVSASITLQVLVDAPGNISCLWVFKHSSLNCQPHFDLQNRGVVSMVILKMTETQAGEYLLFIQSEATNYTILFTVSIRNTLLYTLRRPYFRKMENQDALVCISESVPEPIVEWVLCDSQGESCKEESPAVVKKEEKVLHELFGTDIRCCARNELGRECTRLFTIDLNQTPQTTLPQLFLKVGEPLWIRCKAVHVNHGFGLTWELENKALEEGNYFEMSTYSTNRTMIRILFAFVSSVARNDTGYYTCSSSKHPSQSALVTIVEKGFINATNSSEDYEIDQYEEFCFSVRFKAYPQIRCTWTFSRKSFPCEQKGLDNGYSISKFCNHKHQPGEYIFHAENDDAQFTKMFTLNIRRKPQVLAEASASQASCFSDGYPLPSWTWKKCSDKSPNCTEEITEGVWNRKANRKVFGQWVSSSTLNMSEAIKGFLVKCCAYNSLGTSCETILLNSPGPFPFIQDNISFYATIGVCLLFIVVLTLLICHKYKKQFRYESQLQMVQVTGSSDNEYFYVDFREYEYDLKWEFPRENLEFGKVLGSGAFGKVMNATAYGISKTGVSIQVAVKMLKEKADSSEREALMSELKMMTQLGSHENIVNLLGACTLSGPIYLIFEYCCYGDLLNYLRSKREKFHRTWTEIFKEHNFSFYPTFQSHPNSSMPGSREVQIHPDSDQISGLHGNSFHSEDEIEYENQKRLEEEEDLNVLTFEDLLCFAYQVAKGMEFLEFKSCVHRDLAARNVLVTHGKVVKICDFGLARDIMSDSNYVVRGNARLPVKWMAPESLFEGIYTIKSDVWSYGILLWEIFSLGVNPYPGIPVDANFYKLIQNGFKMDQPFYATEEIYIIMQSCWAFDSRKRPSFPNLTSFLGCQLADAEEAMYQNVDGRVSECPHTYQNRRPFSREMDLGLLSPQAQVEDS
The settings on record: FLT3, 1 μM; read-out: % control. The gist of the method: as §1

The next test has as its target HPK1 (Homo sapiens, UniProt Q92918). The settings on record: HPK1, 1 μM; read-out: % control. The gist of the method: as §1
The target in another test is PAK4 (Homo sapiens, UniProt O96013). The settings on record: PAK4, 1 μM; read-out: % control. In short, it runs like this:
as §1

The next test addresses PFTK1 (Homo sapiens, UniProt O94921). The note with it: PFTK1, 1 μM; read-out: % control. The gist of the method: as §1
Another test concerns the target MAP4K5 (Homo sapiens, UniProt Q9Y4K4). The note with it: MAP4K5, 1 μM; read-out: % control. The gist of the method:
as §1

For a further test, the target named is T4, p38-delta (Homo sapiens, UniProt O15264).
T4 sequence (O15264 1-365): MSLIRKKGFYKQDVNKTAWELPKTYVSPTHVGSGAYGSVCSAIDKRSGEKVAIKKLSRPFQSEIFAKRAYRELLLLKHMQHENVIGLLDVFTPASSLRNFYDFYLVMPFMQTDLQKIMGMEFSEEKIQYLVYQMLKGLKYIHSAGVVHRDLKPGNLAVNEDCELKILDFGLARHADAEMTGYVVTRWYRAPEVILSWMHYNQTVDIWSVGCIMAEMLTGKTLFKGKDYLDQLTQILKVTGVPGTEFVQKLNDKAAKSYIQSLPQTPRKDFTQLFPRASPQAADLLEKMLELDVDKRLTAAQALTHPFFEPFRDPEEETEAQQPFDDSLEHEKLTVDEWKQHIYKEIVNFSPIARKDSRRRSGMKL
The note with it: read-out: % control. The gist of the method:
as §1

Chain of MAP4K5 (Q9Y4K4 whole entry): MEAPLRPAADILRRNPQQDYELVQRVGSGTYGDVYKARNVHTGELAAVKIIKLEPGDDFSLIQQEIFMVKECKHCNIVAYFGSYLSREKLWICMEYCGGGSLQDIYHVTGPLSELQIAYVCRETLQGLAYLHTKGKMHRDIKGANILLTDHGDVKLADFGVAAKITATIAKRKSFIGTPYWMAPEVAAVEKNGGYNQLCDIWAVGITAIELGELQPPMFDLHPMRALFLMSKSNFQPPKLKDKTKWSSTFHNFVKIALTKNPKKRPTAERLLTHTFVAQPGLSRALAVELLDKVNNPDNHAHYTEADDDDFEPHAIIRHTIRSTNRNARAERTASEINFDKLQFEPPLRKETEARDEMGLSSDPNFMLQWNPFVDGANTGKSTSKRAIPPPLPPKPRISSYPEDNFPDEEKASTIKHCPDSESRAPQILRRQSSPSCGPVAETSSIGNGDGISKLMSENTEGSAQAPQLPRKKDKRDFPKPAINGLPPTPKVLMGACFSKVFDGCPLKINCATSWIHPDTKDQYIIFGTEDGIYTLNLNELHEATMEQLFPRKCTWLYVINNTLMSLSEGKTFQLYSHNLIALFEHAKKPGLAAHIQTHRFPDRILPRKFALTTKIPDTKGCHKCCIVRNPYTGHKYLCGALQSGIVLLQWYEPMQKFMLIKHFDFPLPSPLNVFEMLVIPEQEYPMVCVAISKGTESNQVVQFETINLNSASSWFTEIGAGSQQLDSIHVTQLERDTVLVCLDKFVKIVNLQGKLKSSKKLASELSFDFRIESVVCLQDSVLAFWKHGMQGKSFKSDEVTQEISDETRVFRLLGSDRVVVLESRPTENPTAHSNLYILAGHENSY
Chain of HPK1 (Q92918 whole entry): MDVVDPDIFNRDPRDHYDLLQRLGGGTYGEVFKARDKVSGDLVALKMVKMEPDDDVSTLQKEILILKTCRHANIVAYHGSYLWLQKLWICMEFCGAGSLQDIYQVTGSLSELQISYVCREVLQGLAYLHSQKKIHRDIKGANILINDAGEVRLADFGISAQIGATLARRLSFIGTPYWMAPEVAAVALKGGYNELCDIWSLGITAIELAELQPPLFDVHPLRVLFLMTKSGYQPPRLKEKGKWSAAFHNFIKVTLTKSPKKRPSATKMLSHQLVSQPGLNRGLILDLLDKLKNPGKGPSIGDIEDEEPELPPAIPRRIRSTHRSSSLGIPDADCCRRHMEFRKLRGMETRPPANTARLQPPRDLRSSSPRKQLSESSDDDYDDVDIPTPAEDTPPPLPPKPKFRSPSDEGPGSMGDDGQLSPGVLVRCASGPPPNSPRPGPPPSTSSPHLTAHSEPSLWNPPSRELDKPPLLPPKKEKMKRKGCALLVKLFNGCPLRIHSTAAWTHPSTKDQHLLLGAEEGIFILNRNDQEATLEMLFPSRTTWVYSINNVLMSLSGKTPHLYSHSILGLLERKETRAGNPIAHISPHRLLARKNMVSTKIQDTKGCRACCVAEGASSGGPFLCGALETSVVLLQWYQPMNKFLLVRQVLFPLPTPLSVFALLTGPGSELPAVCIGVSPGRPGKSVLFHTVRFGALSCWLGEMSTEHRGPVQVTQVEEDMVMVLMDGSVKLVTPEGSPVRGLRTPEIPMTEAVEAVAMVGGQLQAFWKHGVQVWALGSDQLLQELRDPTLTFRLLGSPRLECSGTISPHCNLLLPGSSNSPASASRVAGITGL
Chain of PAK4 (O96013 whole entry): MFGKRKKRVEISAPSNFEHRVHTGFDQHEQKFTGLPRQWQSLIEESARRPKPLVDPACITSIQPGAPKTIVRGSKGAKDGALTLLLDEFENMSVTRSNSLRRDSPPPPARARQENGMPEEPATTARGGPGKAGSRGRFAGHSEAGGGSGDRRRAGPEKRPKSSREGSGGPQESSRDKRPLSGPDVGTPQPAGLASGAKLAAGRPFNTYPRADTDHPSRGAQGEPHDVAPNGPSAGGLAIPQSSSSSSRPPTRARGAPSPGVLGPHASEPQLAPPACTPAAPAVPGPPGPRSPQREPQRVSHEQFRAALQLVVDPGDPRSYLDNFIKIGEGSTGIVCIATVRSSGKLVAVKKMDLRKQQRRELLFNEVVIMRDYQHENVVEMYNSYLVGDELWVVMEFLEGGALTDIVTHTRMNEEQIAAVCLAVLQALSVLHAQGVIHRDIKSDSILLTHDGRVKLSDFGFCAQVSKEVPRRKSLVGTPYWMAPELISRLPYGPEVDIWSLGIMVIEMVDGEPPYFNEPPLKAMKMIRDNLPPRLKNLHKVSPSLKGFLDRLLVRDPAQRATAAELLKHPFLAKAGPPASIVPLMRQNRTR
T1 sequence (Q9UM73 19-1620 C1156Y): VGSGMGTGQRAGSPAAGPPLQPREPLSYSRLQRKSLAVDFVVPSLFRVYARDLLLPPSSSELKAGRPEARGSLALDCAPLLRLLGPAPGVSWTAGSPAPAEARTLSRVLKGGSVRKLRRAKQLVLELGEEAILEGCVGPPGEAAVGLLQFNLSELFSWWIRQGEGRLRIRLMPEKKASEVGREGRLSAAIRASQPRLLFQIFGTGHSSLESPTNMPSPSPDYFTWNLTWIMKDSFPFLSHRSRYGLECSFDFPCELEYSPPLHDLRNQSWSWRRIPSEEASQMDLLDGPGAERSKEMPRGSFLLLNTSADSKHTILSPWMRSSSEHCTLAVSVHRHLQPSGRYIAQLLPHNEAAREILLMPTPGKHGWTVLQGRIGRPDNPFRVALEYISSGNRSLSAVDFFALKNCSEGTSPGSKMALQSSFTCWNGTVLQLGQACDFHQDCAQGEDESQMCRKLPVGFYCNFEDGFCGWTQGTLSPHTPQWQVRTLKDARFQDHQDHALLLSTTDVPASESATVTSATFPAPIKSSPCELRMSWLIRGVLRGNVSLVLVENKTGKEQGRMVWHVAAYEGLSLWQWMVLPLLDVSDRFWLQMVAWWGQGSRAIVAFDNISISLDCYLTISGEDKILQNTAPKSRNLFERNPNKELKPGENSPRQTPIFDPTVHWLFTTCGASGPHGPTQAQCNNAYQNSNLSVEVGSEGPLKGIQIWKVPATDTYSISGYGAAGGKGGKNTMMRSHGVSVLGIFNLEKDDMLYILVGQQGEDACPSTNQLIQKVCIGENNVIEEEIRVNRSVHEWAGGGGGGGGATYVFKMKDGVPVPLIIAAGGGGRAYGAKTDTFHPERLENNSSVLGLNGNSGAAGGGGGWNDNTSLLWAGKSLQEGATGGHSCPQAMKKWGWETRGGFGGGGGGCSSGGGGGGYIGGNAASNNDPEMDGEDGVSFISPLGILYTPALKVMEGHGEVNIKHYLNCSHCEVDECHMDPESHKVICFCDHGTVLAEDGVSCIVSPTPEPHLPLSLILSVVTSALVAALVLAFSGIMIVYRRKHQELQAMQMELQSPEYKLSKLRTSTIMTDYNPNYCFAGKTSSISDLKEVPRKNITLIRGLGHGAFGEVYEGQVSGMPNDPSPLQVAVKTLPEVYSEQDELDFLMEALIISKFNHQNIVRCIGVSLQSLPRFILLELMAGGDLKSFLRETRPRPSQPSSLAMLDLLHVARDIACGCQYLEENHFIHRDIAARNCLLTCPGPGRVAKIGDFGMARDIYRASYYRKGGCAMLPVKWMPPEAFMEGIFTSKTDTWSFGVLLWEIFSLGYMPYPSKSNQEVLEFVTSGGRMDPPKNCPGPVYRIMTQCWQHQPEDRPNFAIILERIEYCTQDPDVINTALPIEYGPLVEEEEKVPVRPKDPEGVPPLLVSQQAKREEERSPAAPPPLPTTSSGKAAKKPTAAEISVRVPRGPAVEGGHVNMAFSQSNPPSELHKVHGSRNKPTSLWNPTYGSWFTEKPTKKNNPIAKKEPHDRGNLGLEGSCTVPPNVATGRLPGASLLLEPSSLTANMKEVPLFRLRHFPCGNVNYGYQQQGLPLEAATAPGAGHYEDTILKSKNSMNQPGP
Chain of PFTK1 (O94921 whole entry): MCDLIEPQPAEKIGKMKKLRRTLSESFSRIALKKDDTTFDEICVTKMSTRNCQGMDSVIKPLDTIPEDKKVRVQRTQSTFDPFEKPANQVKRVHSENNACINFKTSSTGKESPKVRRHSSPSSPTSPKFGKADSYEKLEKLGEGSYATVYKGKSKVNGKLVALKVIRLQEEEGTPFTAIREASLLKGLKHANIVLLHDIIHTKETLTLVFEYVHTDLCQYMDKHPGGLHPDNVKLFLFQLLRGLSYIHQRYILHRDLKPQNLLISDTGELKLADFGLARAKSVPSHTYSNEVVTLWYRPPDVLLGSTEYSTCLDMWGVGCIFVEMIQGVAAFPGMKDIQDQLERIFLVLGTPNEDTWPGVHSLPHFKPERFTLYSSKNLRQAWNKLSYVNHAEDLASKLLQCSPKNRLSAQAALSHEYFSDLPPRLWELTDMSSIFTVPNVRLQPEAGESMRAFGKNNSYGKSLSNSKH

In the case of `CNc1c(-c2cnn([C@H]3CCN(C(C)=O)C[C@@H]3F)c2)cnc2[nH]cc(Cl)c12` [Compound 77, 1-((3S,4S)-4-(4-(3-chloro-4-(methylamino)-1H-pyrrolo[2,3-b]pyridin-5-yl)-1H-pyrazol-1-yl)-3-fluoropiperidin-1-yl)ethan-1-one], the remaining binding at 1 µM was 47% on ALK(C1156Y); 90% at EPHA3; 3.3% on FLT3; 6.7% at HPK1; 65% at PAK4; 100% at PFTK1. The remaining binding at 1 µM amounted to 77% on MAP4K5 and 96% at p38-delta.

Turning to `CNc1c(-c2ccc(C(=O)N3CCC(N4CCOCC4)CC3)cc2)cnc2[nH]cc(Cl)c12` [Compound 96, (4-(3-chloro-4-(methylamino)-1H-pyrrolo[2,3-b]pyridin-5-yl)phenyl)(4-morpholinopiperidin-1-yl)methanone], the remaining binding at 1 µM came to 37% on ALK(C1156Y); 100% at EPHA3; 6.7% at FLT3; 84% at HPK1; 31% on PAK4; 100% on PFTK1. In addition, the remaining binding at 1 µM at MAP4K5 was determined as 39%; at p38-delta, 99%.

In the case of `O=C(c1ccc(-c2cnc3[nH]cc(Cl)c3c2NC2CCCC2)cc1)N1CCC(N2CCOCC2)CC1` [Compound 101, (4-(3-chloro-4-(cyclopentylamino)-1H-pyrrolo[2,3-b]pyridin-5-yl)phenyl)(4-morpholinopiperidin-1-yl)methanone], the remaining binding at 1 µM amounted to 66% on ALK(C1156Y); 82% at EPHA3; 4.9% at FLT3; 53% on HPK1; 100% at PAK4; 100% at PFTK1. For the same compound, the remaining binding at 1 µM at MAP4K5 was 88%; at p38-delta it was 94%.
